Values joined by “and” are separate entries in the source; they are usually repeats but may differ in a detail not shown here. Equal entries are not always repeated. “Also recorded” adds a separate entry of the source.
Legend:
DU145 cells = assay: BrdU incorporation assay, DU145; format: cell-based, human; details: ATRA 10 µM
Protocol: Cells were treated with the inhibitors and stimulated with 1 nM of R1881 (+) or vehicle (−) for 24 to 72 h. Each data point represents the average from an independent experiment where the error bars show the mean ± s.e.m.
BrdU incorporation was determined with the colorimetric BrdU ELISA kit (Roche Diagnostics), according to the manufacturer’s protocol. In brief, cells were seeded in 96-well plates (LNCaP, 5000/well; LN95, 8000/well; PC-3 and DU145, 4000/wells) in media with reduced serum (0.5–1%). On the following day, cells were pre-treated with test compounds for 1 h and then incubated with 0.1 nM of R1881. After the indicated incubation times, cells were labeled with 10 μM of BrdU for 2 h and then fixed for the assay.

[1] = Body weight and tolerability in the xenograft study; format: in vivo, mice; details: ATRA 5mg
serum PSA = assay: Quantification of serum PSA (ELISA) in xenograft-bearing mice; format: in vivo; details: ATRA compared to placebo; on average; did not reach statistical significance
Protocol: Serum levels for total PSA were measured by a PSA ELISA kit (Anogen, Mississauga, ON) with a lower limit sensitivity of ~1 ng/mL. Whole blood was sampled from the tail vein on days indicated or by cardiac puncture immediately after euthanasia. The serum fraction was separated by centrifugation at 12,000 rpm for 3 min at room temperature and then stored at −20 °C until further analysis. Serum samples were diluted tenfold for the assay and were compared to calibration standards, according to the manufacturer’s protocol. The concentration of total PSA was determined by a VersaMax ELISA microplate reader by measuring absorbance at 450 nm with a reference wavelength of 650 nm.

[2] = test system: Pin1 and cell cycle proteins in LN95 cells; assay: Western blot of Pin1 and cell cycle proteins in LN95 cells; details: for CyclinA2 protein level (Fig. 6a) / CyclinB1 protein level (Fig. 6a) / CyclinD1 protein level (Fig. 6a) / Pin1 protein level (Fig. 6a) / p21 protein level (Fig. 6a) / p27 protein level (Fig. 6a): relative to 0 μM = 1, replicate experiments by date
Protocol: Data shown are the means ± s.e.m. from 3–4 independent experiments. Statistical significance was determined by ANOVA using the Dunnett’s multiple comparisons test. *P < 0.05, **P < 0.01, ***P < 0.001.
For western blot analyses, membranes were blocked with 5% non-fat milk in phosphate-buffered saline containing 0.1% Tween-20 (PBS-T) and then incubated overnight at 4 °C with primary antibody (1:200–5000) in PBS-T containing 5% non-fat milk or 2% BSA. After incubation with the primary antibody, the membrane was washed three times with TBS-T, incubated with a horseradish peroxidase-conjugated antibody secondary antibody (1:5000–10,000) for 1–2 h at room temperature, and washed three times with PBS-T and two more times with PBS before chemiluminescence was detected with ECL Prime Reagent (GE Healthcare Life Science, Mississauga, ON). Western blot images were captured using the ChemiDoc MP Imaging System (Bio-Rad Laboratories, Hercules, CA) and quantified using ImageJ software.

[3] = molecular target: T1, Gal4-ARN fragments and Gal4-AR234–391 constructs (Homo sapiens, UniProt P10275); assay: Transactivation assay with Gal4-ARN fragments and Gal4-AR234–391 proline to glycine mutants; format: cell-based; details: juglone 20 µM, IL-6 50 ng/mL, 24 h
T1 construct: expressed in transfected cells; host or cells: LNCaP
Protocol: (§1) Fig. 3 Pin1 interacts with the AR NTD and regulates transactivation. a, b Transactivation assays performed in LNCaP cells expressing a vector encoding the human AR NTD fused to a Gal4 DNA-binding domain (Gal4-ARN). […] Input samples show Pin1 expression from lysates before the pull-down. i Co-immunoprecipitation assay showing AR protein co-immunoprecipitated with STAT3 from LNCaP cells incubated with EPI-002 (EPI, 35 μM), juglone (JUG, 30 μM), or vehicle (VEH, DMSO), and IL-6 (50 ng/mL) for 6 h. j, k Levels of phosphorylated MAPK (isoforms p44 and p42) and phosphorylated STAT3 (Tyr705 and Ser727) from LNCaP cells pre-treated with juglone (20 µM) and then stimulated with IL-6 (50 ng/mL) for 15 min. Error bars show the mean ± s.e.m. *P < 0.05, **P < 0.01, ***P < 0.001; ns not significant.

[4] = molecular target: T2, Gal4-ARN fragments and Gal4-AR234–391 constructs (Homo sapiens, UniProt P10275, P259G); assay: as above; format: cell-based; details: juglone 20 µM, IL-6 50 ng/mL, 24 h
T2 construct: expressed in transfected cells; host or cells: LNCaP
Protocol: as §1

[5] = molecular target: T3, Gal4-ARN fragments and Gal4-AR234–391 constructs (Homo sapiens, UniProt P10275, P311G); assay: as above; format: cell-based; details: juglone 20 µM, IL-6 50 ng/mL, 24 h
T3 construct: expressed in transfected cells; host or cells: LNCaP
Protocol: as §1

[6] = test system: Gal4-ARN fragments and Gal4-AR234–391 constructs; assay: as above; format: cell-based, human; details: juglone 20 µM, IL-6 50 ng/mL, 24 h
Protocol: as §1

[7] = molecular target: T4, AR interaction with STAT3 (Homo sapiens, UniProt P10275, T878A); assay: Co-immunoprecipitation of AR with STAT3 from LNCaP cells; format: cell-based; details: juglone 30 μM, IL-6 50 ng/mL, 6 h
T4 construct: Endogenous STAT3 complexes were co-immunoprecipitated from LNCaP cells treated with juglone and IL-6; endogenous in cells; host or cells: LNCaP
Protocol: as §1

T2 sequence (P10275 236-393 P259G): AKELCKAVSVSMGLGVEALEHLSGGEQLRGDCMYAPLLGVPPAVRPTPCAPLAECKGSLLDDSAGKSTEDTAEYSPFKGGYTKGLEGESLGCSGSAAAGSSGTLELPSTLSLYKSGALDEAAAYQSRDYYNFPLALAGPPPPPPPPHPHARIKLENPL
T3 sequence (P10275 236-393 P311G): as the sequence (P10275 236-393 P259G) above, with G24P, P76G counted along it
T1 sequence (P10275 236-393): as the sequence (P10275 236-393 P259G) above, with G24P counted along it
T4 sequence (P10275 whole entry T878A): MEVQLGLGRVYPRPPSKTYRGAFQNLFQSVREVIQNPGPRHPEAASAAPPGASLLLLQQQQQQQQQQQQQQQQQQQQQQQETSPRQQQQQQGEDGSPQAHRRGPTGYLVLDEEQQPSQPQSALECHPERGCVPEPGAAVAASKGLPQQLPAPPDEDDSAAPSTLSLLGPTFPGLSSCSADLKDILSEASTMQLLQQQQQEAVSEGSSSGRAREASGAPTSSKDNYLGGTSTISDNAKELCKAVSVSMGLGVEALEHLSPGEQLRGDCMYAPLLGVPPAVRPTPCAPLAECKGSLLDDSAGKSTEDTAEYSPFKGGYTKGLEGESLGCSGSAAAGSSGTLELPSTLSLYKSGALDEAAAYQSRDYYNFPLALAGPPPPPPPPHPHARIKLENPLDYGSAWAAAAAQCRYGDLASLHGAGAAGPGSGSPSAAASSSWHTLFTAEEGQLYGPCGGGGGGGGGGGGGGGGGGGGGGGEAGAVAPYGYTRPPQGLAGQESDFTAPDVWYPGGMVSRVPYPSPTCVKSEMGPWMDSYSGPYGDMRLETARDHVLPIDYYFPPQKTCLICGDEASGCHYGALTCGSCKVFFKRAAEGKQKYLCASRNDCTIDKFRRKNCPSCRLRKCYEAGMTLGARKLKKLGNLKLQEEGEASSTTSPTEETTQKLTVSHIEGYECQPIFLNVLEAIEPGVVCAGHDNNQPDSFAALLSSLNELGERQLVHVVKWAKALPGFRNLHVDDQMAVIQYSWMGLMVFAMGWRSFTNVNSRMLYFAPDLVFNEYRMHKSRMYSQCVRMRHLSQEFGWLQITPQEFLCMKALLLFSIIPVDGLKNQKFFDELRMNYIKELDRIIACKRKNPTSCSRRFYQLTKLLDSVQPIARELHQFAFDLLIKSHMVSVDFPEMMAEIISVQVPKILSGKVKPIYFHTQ

With CC1=C(/C=C/C(C)=C/C=C/C(C)=C/C(=O)O)C(C)(C)CCC1 [ATRA, all-trans retinoic acid] the “effect on proliferation of DU145 cells” value (DU145 cells) was “did not impact the proliferation of either PC-3 or DU145 cells”, the “BrdU incorporation, DU145 (Fig. 4d)” value (DU145 cells; − R1881, ENZ 10 µM, EPI-002 25 µM, JUG 20 µM) was 0.607 and 0.932 and 1.111 and 0.945 and the “Body weight, individual animals (Fig. 7c)” value (from here on “Body weight”) ([1]; treatment duration 0 days) was 26.7 and 29.9 and 28.1 and 28.2 and 29.3 and 28.3 and 30.2 (2×). For the same compound, the “Body weight” value ([1]; treatment duration 1 days, in g (unit assumed)) was 26.8 and 30.1 and 28.1 and 27.9 and 29.3 and 28.7 and 29 and 29.8, the “Body weight” value ([1]; treatment duration 2 days) was 26.7 and 29.8 and 27.6 (2×) and 28.9 and 28.8 and 29.1 and 29.4 and the “Body weight” value ([1]; treatment duration 3 days) was 25.9 and 29 and 25.6 and 26.8 and 28.1 and 28.3 (2×) and 28.9. The “Body weight” value ([1]; treatment duration 4 days, in g (unit assumed)) was 25.2 and 28.9 and 27 and 27.1 and 29.1 and 28.5 and 27.5 and 28.7, the “Body weight” value ([1]; treatment duration 5 days, in g (unit assumed)) was 23.9 and 28.3 and 26.5 and 27 and 28.5 and 28.2 and 26.8 and 27.8 and the “Body weight” value ([1]; treatment duration 6 days, in g (unit assumed)) was 23.9 and 27.9 and 26.1 and 26.5 and 28.2 and 27.4 and 26.8 and 28. For the same compound, the “Body weight” value ([1]; treatment duration 7 days) was 23.9 and 27.5 (2×) and 25.7 and 26.4 and 28.1 and 26.9 and 27.6, the “Body weight” value ([1]; treatment duration 8 days, in g (unit assumed)) was 23.1 and 27.9 and 25.6 and 26.6 and 28.2 and 27.4 and 25.9 and 27.6 and the “Body weight” value ([1]; treatment duration 9 days) was 22.3 and 27.6 and 25.3 (2×) and 26.2 and 28.4 and 27.3 and 27.7. The “Body weight” value ([1]; treatment duration 10 days) was 22.1 and 28.3 and 24.9 and 26.3 (2×) and 27.9 and 25.2 and 27.4, the “Body weight” value ([1]; treatment duration 11 days, in g (unit assumed)) was 22 and 28 and 24.2 and 26 and 27.8 and 25.3 and 24.7 and 27.2 and the “Body weight” value ([1]; treatment duration 12 days, in g (unit assumed)) was 21.9 and 27.9 and 24.6 and 26.1. The “reduction of PSA expression in sera, pilot study” value (serum PSA) was 27%, the “CyclinA2 protein level (Fig. 6a)” value ([2]; 1 μM) was 1 and 0.69 and 0.64 and the “CyclinB1 protein level (Fig. 6a)” value ([2]; 1 μM) was 1.17 and 0.87 and 1.22. The “CyclinD1 protein level (Fig. 6a)” value ([2]; 1 μM) was 0.71 and 0.24 and 0.7 and 0.33, the “Pin1 protein level (Fig. 6a)” value ([2]; 1 μM) was 0.8 and 0.7 and 0.86 and 0.56 and the “p21 protein level (Fig. 6a)” value ([2]; 1 μM) was 1.19 and 0.73 and 1.3. The “p27 protein level (Fig. 6a)” value ([2]; 1 μM) was 0.93 and 0.87 and 1.2, the “CyclinA2 protein level (Fig. 6a)” value ([2]; 5 μM) was 0.66 and 0.01 and 1.22 and the “CyclinB1 protein level (Fig. 6a)” value ([2]; 5 μM) was 0.9 and 0.62 and 1.39. For the same compound, the “CyclinD1 protein level (Fig. 6a)” value ([2]; 5 μM) was 0.34 and 0.13 and 0.42 and 0.23, the “Pin1 protein level (Fig. 6a)” value ([2]; 5 μM) was 0.63 and 0.26 and 0.56 and 0.35 and the “p21 protein level (Fig. 6a)” value ([2]; 5 μM) was 0.81 and 0.2 and 1.37. For the same compound, the “p27 protein level (Fig. 6a)” value ([2]; 5 μM) was 1.19 and 1.12 and 1.3, the “CyclinA2 protein level (Fig. 6a)” value ([2]; 10 μM) was 0.13 and 0 and 0.23 and the “CyclinB1 protein level (Fig. 6a)” value ([2]; 10 μM) was 0.63 and 0.58 and 0.55. For the same compound, the “CyclinD1 protein level (Fig. 6a)” value ([2]; 10 μM) was 0.01 and 0.35 and 0.23 and 0.05, the “Pin1 protein level (Fig. 6a)” value ([2]; 10 μM) was 0.56 and 0.13 and 0.39 and 0.14 and the “p21 protein level (Fig. 6a)” value ([2]; 10 μM) was 1.42 and 0.19 and 0.58. The “p27 protein level (Fig. 6a)” value ([2]; 10 μM) was 1.39 and 2.2 and 1.28, the “effect on cellular Pin1 protein levels” value ([2]; LN95, 0–10 µM) was “dose-dependent decrease in Pin1 levels” and the “effect on expression of cyclins D1, A2, B1” value ([2]; LN95, ATRA 0–10 µM) was “significantly decreased the expression of cyclin D1 and cyclin A2; also recorded: not cyclin B1”. The “effect on levels of CDK inhibitors p27Kip1 and p21Cip1” value ([2]; LN95, ATRA 0–10 µM) was “selectively increased the levels of cyclin-dependent kinase (CDK) inhibitor p27^Kip1 but not p21^Cip1”.

For O=C1C=CC(=O)c2c(O)cccc21 [juglone], the “transactivation, AR234-391 (Fig. 3e)” value [3] was 5.441 and 3.73 and 3.732, the “transactivation, Gal4-AR234–391 P257G (Fig. 3f)” value [4] was 5.034 and 6.44 and 8.824 and the “transactivation, Gal4-AR234–391 P309G (Fig. 3f)” value [5] was 4.289 and 4.331 and 7.708. For the same compound, the “effect on IL-6-induced transactivation of Gal4-AR234–391 proline to glycine mutants” value [6] was “inhibited the P257G and P309G mutants to levels that were comparable to wild-type; also recorded: had no effect on the P257G/P309G double mutant”, the “effect on IL-6-induced transactivation of Gal4-AR NTD fragments (construct named in the value)” value [6] was “inhibited transactivation of AR 234–391 and intact AR NTD (1–558); also recorded: only had a modest effect on AR 392–558; also recorded: did not inhibit the activity of Gal4DBD (empty vector) or AR 1–233” and the “transactivation, Gal4DBD (Fig. 3f)” value [6] was 0.951 and 0.829 and 0.839. For the same compound, the “reduction of the amount of AR interacting with STAT3” value [7] was ~ 50%.
